Measurements taken from the NIST ThermoML archive (doi:10.1021/je060032n).

Assay: xn = mol fraction of the nth substance listed
Details: 101 kPa, Liquid; for viscosity: Capillary tube (Ostwald / Ubbelohde) method

NCCNCCO [N-(2-aminoethyl)ethanolamine] + O
Details	mass density, 298.15 K [kg/m3]	mass density, 303.15 K [kg/m3]	mass density, 313.15 K [kg/m3]	viscosity, 298.15 K [mPa·s]	viscosity, 303.15 K [mPa·s]	viscosity, 313.15 K [mPa·s]
x1 = 0.05	1015.65	1013.65	1009.22	2.45	2.16	1.63
x1 = 0.07	1022.28	1020.01	1015.13	3.87	3.24	2.29
x1 = 0.0999	1030.85	1028.24	1022.7	6.76	5.5	3.83
x1 = 0.1992	1047.37	1044.02	1037.13	30	22.6	13.5
x1 = 0.3	1050.66	1047.05	1039.7	70.9	50.4	27.8
x1 = 0.3997	1048.18	1044.5	1037.01	104	72.8	38.9
x1 = 0.4991	1044.05	1040.33	1032.79	121	83.9	44.8
x1 = 0.599	1039.62	1035.89	1028.36	124	87	46.5
x1 = 0.6991	1035.48	1031.74	1024.21	121	84.8	45.7
x1 = 0.7997	1031.83	1028.11	1020.57	116	82.5	44.8
x1 = 0.9002	1028.28	1024.57	1017.06	109	78.1	44.4
x1 = 1	1025.28	1021.53	1014.02	98.6	70.5	39.4
